Assay results reported in ChEMBL document CHEMBL1136455, “The synthesis and antibacterial activity of 1,3,4-thiadiazole phenyl oxazolidinone analogues” (Bioorg Med Chem Lett, 2003).
In brackets after ≈: the same amount, converted by molar mass.

How the values were obtained:
Staphylococcus aureus [1] = test: In vitro antibacterial activity against methicillin susceptible Staphylococcus aureus UC 9213 (MSSA); assay type: functional
Moraxella catarrhalis = test: In vitro antibacterial activity against Moraxella catarrhalis 30607; assay type: functional
Streptococcus pneumoniae = test: In vitro antibacterial activity against penicillin sensitive Streptococcus pneumoniae UC 9912; assay type: functional
Mus musculus [2] = test: In vivo efficacy to protect the Staphylococcus aureus infected mouse and the activity was reported using Linezolid as a control with ED50 = 3.5; assay type: functional
Enterococcus faecalis = test: In vitro antibacterial activity against vancomycin resistant Enterococcus faecalis UC 9217 (VREA); assay type: functional
Staphylococcus aureus [3] = test: In vitro antibacterial activity against methicillin resistant Staphylococcus aureus UC 12673 (MRSA); assay type: functional
Haemophilus influenzae = test: In vitro antibacterial activity against ampicillin resistant Haemophilus influenzae 30063 (B-lactamase +); assay type: functional
[4] = tested on: Staphylococcus epidermidis; test: In vitro antibacterial activity against methicillin resistant Staphylococcus epidermidis UC 12084; assay type: functional
Mus musculus [5] = test: In vivo efficacy to protect the Staphylococcus aureus infected mouse and the activity was reported using Linezolid as a control with ED50 =11.5; assay type: functional
[6] = Bioavailability in rat; assay type: ADME, organism-based; details: in vivo
[7] = Clearance in rat; assay type: ADME, organism-based; details: in vivo
Mus musculus [8] = test: In vivo efficacy to protect the Staphylococcus aureus infected mouse and the activity was reported using Linezolid as a control with ED50 = 8; assay type: functional
Mus musculus [9] = test: In vivo efficacy to protect the Staphylococcus aureus infected mouse and the activity was reported using Linezolid as a control with ED50 = 1.8; assay type: functional
Mus musculus [10] = test: In vivo efficacy to protect the Staphylococcus aureus infected mouse and the activity was reported using Linezolid as a control with ED50 = 2.9; assay type: functional
Mus musculus [11] = test: In vivo efficacy to protect the Staphylococcus aureus infected mouse and the activity was reported using Linezolid as a control with ED50 = 2.2
Mus musculus [12] = test: In vivo efficacy to protect the Staphylococcus aureus infected mouse and the activity was reported using Linezolid as a control with ED50 = 3.8; assay type: functional
Mus musculus [13] = test: In vivo efficacy to protect the Staphylococcus aureus infected mouse and the activity was reported using Linezolid as a control with ED50 =[…]; assay type: functional
[14] = tested on: Staphylococcus epidermidis; test: In vitro antibacterial activity against methicillin resistant Staphylococcus epidermidis UC 12084; range is 1-2; assay type: functional

| Structure (SMILES) | MIC (Staphylococcus aureus [1]) [µg/mL] | MIC (Moraxella catarrhalis) [µg/mL] | MIC (Streptococcus pneumoniae) [µg/mL] | ED50 (Mus musculus [2]) [mg/kg] | MIC (Enterococcus faecalis) [µg/mL] | MIC (Staphylococcus aureus [3]) [µg/mL] | MIC (Haemophilus influenzae) [µg/mL] | MIC [4] [µg/mL] | ED50 (Mus musculus [5]) [mg/kg] | bioavailability [6] [%] | clearance [7] [mL/min/kg] | ED50 (Mus musculus [8]) [mg/kg] | ED50 (Mus musculus [9]) [mg/kg] | ED50 (Mus musculus [10]) [mg/kg] | ED50 (Mus musculus [11]) [mg/kg] | ED50 (Mus musculus [12]) [mg/kg] | ED50 (Mus musculus [13]) [mg/kg] | MIC [14] [µg/mL] |
| --- | --- | --- | --- | --- | --- | --- | --- | --- | --- | --- | --- | --- | --- | --- | --- | --- | --- | --- |
| CC(=O)NC[C@H]1CN(c2ccc(-c3nnc(C)s3)c(F)c2)C(=O)O1 | 1 (≈ 2.85 µM) | 2 (≈ 5.71 µM) | < 0.125 | 6.2 | 0.5 (≈ 1.43 µM) | 0.5 (≈ 1.43 µM) | 2 (≈ 5.71 µM) | < 0.125 | – | – | – | – | – | – | – | – | – | – |
| CC(=O)NC[C@H]1CN(c2ccc(-c3nnc(CC(N)=O)s3)c(F)c2)C(=O)O1 | 4 (≈ 10.2 µM) | 8 (≈ 20.3 µM) | < 0.125 | > 20 | 2 (≈ 5.08 µM) | 4 (≈ 10.2 µM) | 4 (≈ 10.2 µM) | 0.5 (≈ 1.27 µM) | – | – | – | – | – | – | – | – | – | – |
| CC(=O)NC[C@H]1CN(c2ccc(-c3nnc(CN)s3)c(F)c2)C(=O)O1 | 8 (≈ 21.9 µM) | 2 (≈ 5.47 µM) | < 0.125 | – | 1 (≈ 2.74 µM) | 4 (≈ 10.9 µM) | 2 (≈ 5.47 µM) | 1 (≈ 2.74 µM) | 21.3 | – | – | – | – | – | – | – | – | – |
| CNCc1nnc(-c2ccc(N3C[C@H](CNC(C)=O)OC3=O)cc2F)s1 | 4 (≈ 10.5 µM) | 4 (≈ 10.5 µM) | < 0.5 | – | 2 (≈ 5.27 µM) | 4 (≈ 10.5 µM) | 4 (≈ 10.5 µM) | 1 (≈ 2.64 µM) | – | – | – | – | – | – | – | – | – | – |
| C/C(S)=N/C[C@H]1CN(c2ccc(-c3nnc(CN)s3)c(F)c2)C(=O)O1 | < 0.5 | < 0.5 | < 0.5 | – | < 0.5 | – | < 0.5 | < 0.5 | – | 14 | 34.3 | > 20 | – | – | – | – | – | – |
| CC(=O)NC[C@H]1CN(c2ccc(-c3nncs3)c(F)c2)C(=O)O1 | 1 (≈ 2.97 µM) | 4 (≈ 11.9 µM) | 0.25 (≈ 0.743 µM) | – | 1 (≈ 2.97 µM) | 1 (≈ 2.97 µM) | 4 (≈ 11.9 µM) | 0.25 (≈ 0.743 µM) | – | – | – | – | 2.2 | – | – | – | – | – |
| CC(=O)NC[C@H]1CN(c2ccc(-c3nnc(CC#N)s3)c(F)c2)C(=O)O1 | 2 (≈ 5.33 µM) | 4 (≈ 10.7 µM) | 0.25 (≈ 0.666 µM) | – | 1 (≈ 2.66 µM) | 1 (≈ 2.66 µM) | 4 (≈ 10.7 µM) | 0.25 (≈ 0.666 µM) | – | – | – | – | – | > 20 | – | – | – | – |
| CC(=O)CCc1nnc(-c2ccc(N3C[C@H](CNC(C)=O)OC3=O)cc2F)s1 | 1 (≈ 2.46 µM) | 4 (≈ 9.84 µM) | < 0.125 | – | 0.5 (≈ 1.23 µM) | 1 (≈ 2.46 µM) | 4 (≈ 9.84 µM) | 0.25 (≈ 0.615 µM) | – | – | – | – | – | – | 7.6 | – | – | – |
| CCc1nnc(-c2ccc(N3C[C@H](CNC(C)=O)OC3=O)cc2F)s1 | 1 (≈ 2.74 µM) | 2 (≈ 5.49 µM) | 0.25 (≈ 0.686 µM) | – | 0.5 (≈ 1.37 µM) | 0.5 (≈ 1.37 µM) | 4 (≈ 11 µM) | 0.25 (≈ 0.686 µM) | – | – | – | – | – | – | – | 9.2 | – | – |
| CC(=O)NC[C@H]1CN(c2ccc(-c3nnc(C[S+](C)[O-])s3)c(F)c2)C(=O)O1 (stereo not given in full) | 8 (≈ 19.4 µM) | 8 (≈ 19.4 µM) | 0.25 (≈ 0.606 µM) | – | 4 (≈ 9.7 µM) | 8 (≈ 19.4 µM) | 8 (≈ 19.4 µM) | 0.5 (≈ 1.21 µM) | – | – | – | – | – | – | – | – | – | – |
| CC(=O)NC[C@H]1CN(c2ccc(-c3nnc(C(N)=O)s3)c(F)c2)C(=O)O1 | 0.5 (≈ 1.32 µM) | 4 (≈ 10.5 µM) | 0.25 (≈ 0.659 µM) | – | 1 (≈ 2.64 µM) | 0.5 (≈ 1.32 µM) | 16 (≈ 42.2 µM) | 0.25 (≈ 0.659 µM) | – | – | – | – | – | – | – | – | 12.4 | – |
| CC(=O)NC[C@H]1CN(c2ccc(N3CCOCC3)c(F)c2)C(=O)O1 [LINEZOLID] | – | 8 (≈ 23.7 µM) | – | – | – | – | 16 (≈ 47.4 µM) | – | – | – | – | – | – | – | – | – | – | 1 (≈ 2.96 µM) |
